Test system: CD86 expression
Experiment: CpG induced CD86 expression (flow cytometry)
Assay type: cell-based, human
Settings: 3.2 μM CpG stimulation, 1 μM
Method: Methods: Primary CLL B cells were isolated from the whole blood of consented patients by FICOLL density centrifugation and rosette-sep negative selection. Annexin V and propidium iodide flow cytometry was used to measure patient CLL cell viability and 7AAD was used to measure viability in stromal co-culture. CD40 and CD86 expression was evaluated via flow cytometry subsequent to sustained 3.2 μM CpG stimulation. BCR signaling in primary CLL cells was investigated by immunoblot succeeding 1 hour treatment and following 1 hour or 24 hours of incubation with Compound 1 in XLA cell lines. MTS values were read after 24 hours of drug incubation. ITK inhibition was investigated via immunoblot after stimulation with anti-CD3 and anti-CD28 and incubation with Compound 1 for 1 hour. Compound 1 was used at a concentration of 1 μM in preclinical studies unless otherwise noted.

In the case of `NC(=O)[C@H]1CCN(c2ncnc(N)c2F)C[C@@H]1N1CCC[C@@H](Nc2cc(Cl)cc(C(F)(F)F)c2)C1=O` [Compound 1, (3R,3′R,4′S)-1′-(6-amino-5-fluoropyrimidin-4-yl)-3-((3-chloro-5-(trifluoromethyl)phenyl)amino)-2-oxo-[1,3′-bipiperidine]-4′-carboxamide], the “decrease of CpG induced CD86 expression” value was 15.7%.

Reference: patent US11174243B2, “Succinate forms and compositions of Bruton's tyrosine kinase inhibitors” (Sunesis Pharmaceuticals, Inc., priority 2016, dated 2021)
